Reference: patent US20230085307A1, “PYRIDAZINONE COMPOUND AND HERBICIDE” (NISSAN CHEMICAL CORPORATION, priority 2019, published 2023)

Each compound was assayed on southern crabgrass (assay: Test Example 5: herbicidal effect by foliage application, plastic box (Table 20, symbol F)). Details: foliage application, 320 g/ha, evaluated three weeks after application.
Format: in vivo, southern crabgrass (Digitaria ciliaris)
Method in brief: (§1)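 Plants sown in sterilized diluvial soil and grown 14 days in a greenhouse at 25° C to 30° C, then sprayed on the foliage with the compound's emulsion diluted in water to a predetermined herbicide amount. Injury to weeds and crops scored three weeks after application on a visual rating scale.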
For `COc1ccc(-c2sc3ccc(F)cc3c2-c2c(O)c(C)nn(C)c2=O)cc1OC` [2-088], the “herbicidal effect on F: southern crabgrass” value was 3 (Herbicidal rate of 40% or more and less than 70%). With `CCCC(=O)Oc1c(C)nn(C)c(=O)c1-c1c(-c2ccc(OC)c(OC)c2)sc2ccc(F)cc12` [2-089] the “herbicidal effect on F: southern crabgrass” value was 3 (Herbicidal rate of 40% or more and less than 70%).

The compounds below were run on blackgrass (assay: Test Example 4: herbicidal effect by soil treatment (Table 19, symbol J)). Details: 320 g/ha.
Format: in vivo, blackgrass (Alopecurus myosuroides)
Method in brief: (§2)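 Three weeks of greenhouse growth at 25° C. to 30° C. followed a uniform surface spray of water-diluted emulsion at a predetermined herbicide amount. Seeds had been sown beforehand under about 1.5 cm of sterilized diluvial soil. Grading followed criteria set out in an earlier test.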
`COc1ccc(-c2sc3ccc(F)cc3c2-c2c(O)c(C)nn(C)c2=O)cc1OC` [2-088] was tested, and the “herbicidal effect rating, J: blackgrass” value was 0 (Herbicidal rate of 5% or less (almost no effect)). For `CCCC(=O)Oc1c(C)nn(C)c(=O)c1-c1c(-c2ccc(OC)c(OC)c2)sc2ccc(F)cc12` [2-089], the “herbicidal effect rating, J: blackgrass” value was 0 (Herbicidal rate of 5% or less (almost no effect)).

The compounds below were run on velvetleaf (assay: Test Example 4: herbicidal effect by soil treatment (Table 19, symbol M)). Details: 320 g/ha.
Format: in vivo, velvetleaf (Abutilon theophrasti)
Method in brief: as §2
With `COc1ccc(-c2sc3ccc(F)cc3c2-c2c(O)c(C)nn(C)c2=O)cc1OC` [2-088] the “herbicidal effect rating, M: velvetleaf” value was 2 (Herbicidal rate of 20% or more and less than 40%). For `CCCC(=O)Oc1c(C)nn(C)c(=O)c1-c1c(-c2ccc(OC)c(OC)c2)sc2ccc(F)cc12` [2-089], the “herbicidal effect rating, M: velvetleaf” value was 4 (Herbicidal rate of 70% or more and less than 90%).

What follows are compounds tested on windgrass (assay: Test Example 5: herbicidal effect by foliage application, plastic box (Table 20, symbol L)). Details: foliage application, 320 g/ha, evaluated three weeks after application.
Format: in vivo, windgrass (Apera spica-venti)
Method in brief: as §1
`COc1ccc(-c2sc3ccc(F)cc3c2-c2c(O)c(C)nn(C)c2=O)cc1OC` [2-088] was tested, and the “herbicidal effect on L: windgrass” value was 0 (Herbicidal rate of 5% or less (almost no effect)). In the case of `CCCC(=O)Oc1c(C)nn(C)c(=O)c1-c1c(-c2ccc(OC)c(OC)c2)sc2ccc(F)cc12` [2-089], the “herbicidal effect on L: windgrass” value is reported as 0 (Herbicidal rate of 5% or less (almost no effect)).

These compounds were tested on chickweed (assay: Test Example 5: herbicidal effect by foliage application, plastic box (Table 20, symbol P)). Details: foliage application, 320 g/ha, evaluated three weeks after application.
Format: in vivo, common chickweed (Stellaria media)
Method in brief: as §1
`COc1ccc(-c2sc3ccc(F)cc3c2-c2c(O)c(C)nn(C)c2=O)cc1OC` [2-088] was tested, and the “herbicidal effect on P: chickweed” value was 5 (Herbicidal rate of 90% or more (almost completely withered)). For `CCCC(=O)Oc1c(C)nn(C)c(=O)c1-c1c(-c2ccc(OC)c(OC)c2)sc2ccc(F)cc12` [2-089], the “herbicidal effect on P: chickweed” value was 5 (Herbicidal rate of 90% or more (almost completely withered)).

The compounds below were run on green foxtail (assay: Test Example 4: herbicidal effect by soil treatment (Table 19, symbol G)). Details: 320 g/ha.
Format: in vivo, green foxtail (Setaria viridis)
Method in brief: as §2
With `COc1ccc(-c2sc3ccc(F)cc3c2-c2c(O)c(C)nn(C)c2=O)cc1OC` [2-088] the “herbicidal effect rating, G: green foxtail” value was 3 (Herbicidal rate of 40% or more and less than 70%). With `CCCC(=O)Oc1c(C)nn(C)c(=O)c1-c1c(-c2ccc(OC)c(OC)c2)sc2ccc(F)cc12` [2-089] the “herbicidal effect rating, G: green foxtail” value was 5 (Herbicidal rate of 90% or more (almost completely withered)).

The compounds below were run on chickweed (assay: Test Example 4: herbicidal effect by soil treatment (Table 19, symbol P)). Details: 320 g/ha.
Format: in vivo, common chickweed (Stellaria media)
Method in brief: as §2
In the case of `COc1ccc(-c2sc3ccc(F)cc3c2-c2c(O)c(C)nn(C)c2=O)cc1OC` [2-088], the “herbicidal effect rating, P: chickweed” value is reported as 2 (Herbicidal rate of 20% or more and less than 40%). With `CCCC(=O)Oc1c(C)nn(C)c(=O)c1-c1c(-c2ccc(OC)c(OC)c2)sc2ccc(F)cc12` [2-089] the “herbicidal effect rating, P: chickweed” value was 3 (Herbicidal rate of 40% or more and less than 70%).

The compounds below were run on persian speedwell (assay: Test Example 4: herbicidal effect by soil treatment (Table 19, symbol R)). Details: 320 g/ha.
Format: in vivo, Persian speedwell (Veronica persica)
Method in brief: as §2
With `COc1ccc(-c2sc3ccc(F)cc3c2-c2c(O)c(C)nn(C)c2=O)cc1OC` [2-088] the “herbicidal effect rating, R: persian speedwell” value was 3 (Herbicidal rate of 40% or more and less than 70%). For `CCCC(=O)Oc1c(C)nn(C)c(=O)c1-c1c(-c2ccc(OC)c(OC)c2)sc2ccc(F)cc12` [2-089], the “herbicidal effect rating, R: persian speedwell” value was 5 (Herbicidal rate of 90% or more (almost completely withered)).

Each compound was assayed on velvetleaf (assay: Test Example 5: herbicidal effect by foliage application, plastic box (Table 20, symbol M)). Details: foliage application, 320 g/ha, evaluated three weeks after application.
Format: in vivo, velvetleaf (Abutilon theophrasti)
Method in brief: as §1
`COc1ccc(-c2sc3ccc(F)cc3c2-c2c(O)c(C)nn(C)c2=O)cc1OC` [2-088] was tested, and the “herbicidal effect on M: velvetleaf” value was 5 (Herbicidal rate of 90% or more (almost completely withered)). For `CCCC(=O)Oc1c(C)nn(C)c(=O)c1-c1c(-c2ccc(OC)c(OC)c2)sc2ccc(F)cc12` [2-089], the “herbicidal effect on M: velvetleaf” value was 5 (Herbicidal rate of 90% or more (almost completely withered)).

What follows are compounds tested on lambsquarters (assay: Test Example 5: herbicidal effect by foliage application, plastic box (Table 20, symbol O)). Details: foliage application, 320 g/ha, evaluated three weeks after application.
Format: in vivo, lambsquarters (Chenopodium album)
Method in brief: as §1
`COc1ccc(-c2sc3ccc(F)cc3c2-c2c(O)c(C)nn(C)c2=O)cc1OC` [2-088] was tested, and the “herbicidal effect on O: lambsquarters” value was 4 (Herbicidal rate of 70% or more and less than 90%). For `CCCC(=O)Oc1c(C)nn(C)c(=O)c1-c1c(-c2ccc(OC)c(OC)c2)sc2ccc(F)cc12` [2-089], the “herbicidal effect on O: lambsquarters” value was 4 (Herbicidal rate of 70% or more and less than 90%).

What follows are compounds tested on wild oat (assay: Test Example 4: herbicidal effect by soil treatment (Table 19, symbol I)). Details: 320 g/ha.
Format: in vivo, wild oat (Avena fatua)
Method in brief: as §2
`COc1ccc(-c2sc3ccc(F)cc3c2-c2c(O)c(C)nn(C)c2=O)cc1OC` [2-088] was tested, and the “herbicidal effect rating, I: wild oat” value was 0 (Herbicidal rate of 5% or less (almost no effect)). `CCCC(=O)Oc1c(C)nn(C)c(=O)c1-c1c(-c2ccc(OC)c(OC)c2)sc2ccc(F)cc12` [2-089] was tested, and the “herbicidal effect rating, I: wild oat” value was 0 (Herbicidal rate of 5% or less (almost no effect)).

Each compound was assayed on lambsquarters (assay: Test Example 4: herbicidal effect by soil treatment (Table 19, symbol O)). Details: 320 g/ha.
Format: in vivo, lambsquarters (Chenopodium album)
Method in brief: as §2
For `COc1ccc(-c2sc3ccc(F)cc3c2-c2c(O)c(C)nn(C)c2=O)cc1OC` [2-088], the “herbicidal effect rating, O: lambsquarters” value was 4 (Herbicidal rate of 70% or more and less than 90%). For `CCCC(=O)Oc1c(C)nn(C)c(=O)c1-c1c(-c2ccc(OC)c(OC)c2)sc2ccc(F)cc12` [2-089], the “herbicidal effect rating, O: lambsquarters” value was 5 (Herbicidal rate of 90% or more (almost completely withered)).

These compounds were tested on Japanese bulrush (assay: Test Example 2: herbicidal activity, application during weed generation under submerged conditions (Table 17, symbol B)). Details: AAH 320 g/ha; application during weed generation, submerged conditions.
Format: in vivo, Japanese bulrush (Schoenoplectus juncoides)
Method in brief: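 In this pot test, flooded alluvial soil (water depth 4 cm) holds all three species sown as a mixture. Once seedlings have one to two leaves, the compound's emulsion, thinned with water to the intended dose, is poured on the water; grading follows after three weeks on the earlier criteria.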
For `COc1ccc(-c2sc3ccc(F)cc3c2-c2c(O)c(C)nn(C)c2=O)cc1OC` [2-088], the “herbicidal effect rating, B: Japanese bulrush” value was 0 (Herbicidal rate of 5% or less (almost no effect)). In the case of `CCCC(=O)Oc1c(C)nn(C)c(=O)c1-c1c(-c2ccc(OC)c(OC)c2)sc2ccc(F)cc12` [2-089], the “herbicidal effect rating, B: Japanese bulrush” value is reported as 3 (Herbicidal rate of 40% or more and less than 70%).

These compounds were tested on persian speedwell (assay: Test Example 5: herbicidal effect by foliage application, plastic box (Table 20, symbol R)). Details: foliage application, 320 g/ha, evaluated three weeks after application.
Format: in vivo, Persian speedwell (Veronica persica)
Method in brief: as §1
With `COc1ccc(-c2sc3ccc(F)cc3c2-c2c(O)c(C)nn(C)c2=O)cc1OC` [2-088] the “herbicidal effect on R: persian speedwell” value was 5 (Herbicidal rate of 90% or more (almost completely withered)). In the case of `CCCC(=O)Oc1c(C)nn(C)c(=O)c1-c1c(-c2ccc(OC)c(OC)c2)sc2ccc(F)cc12` [2-089], the “herbicidal effect on R: persian speedwell” value is reported as 5 (Herbicidal rate of 90% or more (almost completely withered)).

The compounds below were run on oval-leafed pondweed (assay: Test Example 1: herbicidal activity, application before weed generation under submerged conditions (Table 16, symbol C)). Details: 320 g/ha applied herbicide.
Format: in vivo, oval-leafed pondweed (Monochoria vaginalis)
Method in brief: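 Emulsion formulation, water-diluted to set dose, was put onto the flooded surface (4 cm depth, alluvial soil) the same day weeds were sown and 2.5-leaf rice transplanted. After 3 weeks at 25-30 °C under glass, each species was rated 0 (≤5% kill) to 5 (≥90% kill).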
For `COc1ccc(-c2sc3ccc(F)cc3c2-c2c(O)c(C)nn(C)c2=O)cc1OC` [2-088], the “Herbicidal effect on C: oval-leafed pondweed (grade 0-5)” value was 0 (Herbicidal rate of 5% or less (almost no effect)). `CCCC(=O)Oc1c(C)nn(C)c(=O)c1-c1c(-c2ccc(OC)c(OC)c2)sc2ccc(F)cc12` [2-089] was tested, and the “Herbicidal effect on C: oval-leafed pondweed (grade 0-5)” value was 4 (Herbicidal rate of 70% or more and less than 90%).

These compounds were tested on southern crabgrass (assay: Test Example 4: herbicidal effect by soil treatment (Table 19, symbol F)). Details: 320 g/ha.
Format: in vivo, southern crabgrass (Digitaria ciliaris)
Method in brief: as §2
For `COc1ccc(-c2sc3ccc(F)cc3c2-c2c(O)c(C)nn(C)c2=O)cc1OC` [2-088], the “herbicidal effect rating, F: southern crabgrass” value was 1 (Herbicidal rate of 5% or more and less than 20%). In the case of `CCCC(=O)Oc1c(C)nn(C)c(=O)c1-c1c(-c2ccc(OC)c(OC)c2)sc2ccc(F)cc12` [2-089], the “herbicidal effect rating, F: southern crabgrass” value is reported as 4 (Herbicidal rate of 70% or more and less than 90%).

These compounds were tested on barnyard grass (assay: Test Example 4: herbicidal effect by soil treatment (Table 19, symbol H)). Details: 320 g/ha.
Format: in vivo, barnyard grass (Echinochloa crus-galli)
Method in brief: as §2
`COc1ccc(-c2sc3ccc(F)cc3c2-c2c(O)c(C)nn(C)c2=O)cc1OC` [2-088] was tested, and the “herbicidal effect rating, H: barnyard grass” value was 4 (Herbicidal rate of 70% or more and less than 90%). With `CCCC(=O)Oc1c(C)nn(C)c(=O)c1-c1c(-c2ccc(OC)c(OC)c2)sc2ccc(F)cc12` [2-089] the “herbicidal effect rating, H: barnyard grass” value was 4 (Herbicidal rate of 70% or more and less than 90%).
